Data set [1] addresses CD3 (Homo sapiens, UniProt P07766). The following applies: reported; read-out: affinity for CD3; cited from earlier work.
For data set [2], the target named is T1, CD19 (Homo sapiens, UniProt P15391).
T1 sequence (P15391 20-556): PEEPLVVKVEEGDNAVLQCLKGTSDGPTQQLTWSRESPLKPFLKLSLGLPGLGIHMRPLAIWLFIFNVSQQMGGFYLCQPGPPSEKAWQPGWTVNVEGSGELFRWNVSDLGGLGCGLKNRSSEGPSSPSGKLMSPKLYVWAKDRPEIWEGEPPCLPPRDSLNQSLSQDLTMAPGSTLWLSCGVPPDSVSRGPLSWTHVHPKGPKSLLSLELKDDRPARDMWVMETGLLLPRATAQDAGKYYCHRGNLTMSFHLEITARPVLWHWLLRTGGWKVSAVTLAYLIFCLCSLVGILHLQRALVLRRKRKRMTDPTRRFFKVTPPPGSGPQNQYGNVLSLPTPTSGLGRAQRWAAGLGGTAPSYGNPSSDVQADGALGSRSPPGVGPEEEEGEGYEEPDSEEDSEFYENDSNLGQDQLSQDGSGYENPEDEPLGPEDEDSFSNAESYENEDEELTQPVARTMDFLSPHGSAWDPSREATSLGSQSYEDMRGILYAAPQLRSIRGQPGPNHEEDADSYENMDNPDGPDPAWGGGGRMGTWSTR
The following applies: reported; read-out: affinity for CD19; cited from earlier work.

Data set [3] deals with target cell. Conditions: reported; cited from earlier work.
For data set [4], the system named is indolent lymphomas. Conditions: retreatment with single agent; cited from earlier work.
The test system of data set [5] is human T cells. Description: Ibrutinib alone on ex vivo T-cell proliferation (CellTiter-Glo). It is filed as cell-based. Conditions: 25, 250, 750 or 2500 nM, up to 3 days. The method, then:
(§1) Normal human T cells (100,000/well) were treated with increasing concentrations of ibrutinib (0 nM, 25 nM, 250 nM, 750 nM or 2500 nM) for 0, 24, 48, and 72 hours under ex vivo T-cell proliferation/activation conditions, which contained T-cell activator anti-CD3/CD28 Dynabeads and rhIL-2.
Cell viability was determined using the CellTiter-Glo® Luminescent Viability Assay with relative light units (RLU) proportional to the number of viable cells.
(In general: In ATP-based viability assays light output follows the ATP content of the culture.)

In data set [6] the test system is human T cells. Nature of the data set: Ibrutinib alone on ex vivo T-cell activation (CD25). Format: cell-based. The procedure: as §1
The percentages of CD25 in CD4+ and CD8+ T cell subsets were determined by flow cytometry. The effect of ibrutinib treatment alone on upregulation of CD25, a T-cell activation marker, was also evaluated on T cells activated with anti-CD3/CD28 and rhIL2.

For data set [7], the system named is human T cells. Nature of the data set: Ibrutinib alone on ex vivo T-cell cytokine production (ELISA). Format: cell-based. The method, then:
as §1
Production of IFN-γ, TNF-α, and IL-10 was measured by ELISA. […] Because of the minimal IL-6 cytokine production under the ex vivo T-cell proliferation/activation conditions tested, evaluation of ibrutinib's effect on IL-6 induction was not feasible.
For orientation: ELISA stands for enzyme-linked immunosorbent assay.

The test system of data set [8] is Raji/GF cells. Nature of the data set: DART-A-mediated redirected killing of Raji/GF cells using ibrutinib-pretreated T cells (luciferase). The following applies: T cells pretreated with 2500 nM ibrutinib. Format: cell-based, human. The method, then:
(§2) Suspension-cultured CD19-positive Raji/GF cells were harvested and washed with 1×DPBS or assay media containing RPMI 1640 without phenol red, 10% FBS, and pen/strep. Cell concentration and viability were measured by Trypan Blue dye exclusion using a Beckman Coulter Vi-Cell counter. The target cells were diluted in assay media to a cell density of 2×10^5 cells/mL. 50 μL of the diluted cell suspension was added to a 96-well, flat-bottom NUNCLON DELTA white plate (Thermo Scientific Cat #136101). For each treatment, duplicate wells were included. Human T cells, following treatment with ibrutinib for various times as described above, were collected and washed 3 times with assay media. After the final wash, the T cells were counted and resuspended in the assay medium at a cell density of 1×10^6 cells/mL and 100 μL were added to each well. […] The plates were incubated at room temperature in the dark for 10 minutes and then luciferase intensity was measured using a Victor2 Multilabel plate reader (Perkin Elmer #1420-014) with luciferase relative light unit (RLU) as the read-out. […] The percent cytotoxicity values were calculated as described below and concentration-response curves were generated using GraphPad Prism 6 software with curve fitting by the sigmoidal dose-response function.
Specific cell lysis was calculated from RLU data using the following formula: […]

In data set [9] the test system is Raji/GF target cells. Description: DART-A-mediated redirected killing of Raji/GF cells with concomitant ibrutinib. Format: cell-based, human. The procedure: as §2, with “function. […]” for “function.”
The subject of data set [10] is human CD4+ and CD8+ T cells. Description: DART-A-mediated T cell activation (CD25) with Raji/GF cells and concomitant ibrutinib. It is filed as cell-based. The method, then: Assays were conducted as described above, except that: 1) fresh human T cells were substituted for ibrutinib pretreated human T cells; 2) 50 μL of T cells containing 200,000 cells were added into each well; and 3) 50 μL of ibrutinib solution at 10, 3, 1, 0.2, or 0 μM were added into the assay plates. […] The ibrutinib solutions were prepared by diluting a 1000 μM stock solution in 100% DMSO in assay medium with DMSO concentration being diluted to 1% DMSO. The final ibrutinib concentrations on the plate were 2500, 750, 250, 50, or 0 nM and the final DMSO concentration was 0.25%. Plates were incubated and processed as described previously.
However, the presence of ibrutinib inhibited DART-A-mediated CD25 upregulation in a concentration-dependent manner.

Data set [11] deals with primary B-cell (CD20+). Description: DART-A-mediated autologous B-cell depletion with human PBMCs in the presence of ibrutinib. It is filed as cell-based. The text has this:
(§3) An autologous B-cell depletion assay with human PBMCs, which comprise both target cells (CD19+ B cells) and effector cells (CD3+ T cells) in a physiologically relevant cellular context, was utilized to evaluate the effect of ibrutinib on DART-A-mediated primary B-cell depletion, concomitant T-cell activation, and cytokine release.

Data set [12] has as its system human PBMCs. Description: T-cell activation and cytokine release with DART-A-mediated B-cell depletion in human PBMCs in the presence of ibrutinib. It is filed as cell-based.
Source text: as §3

The conditions of data set [13]: once daily oral dose of 560 mg, cited from earlier work.

The values below come from US20170157251A1, “Bi-Specific Monovalent Diabodies That are Capable of Binding CD19 and CD3, and Uses Thereof” (MacroGenics, Inc., priority 2015, published 2017).

In general, Emax refers to the greatest response seen or fitted, relative to the assay's reference. As a reminder, the inhibition is the share of the control response that was lost under treatment.

CD3, sequence (P07766 23-207): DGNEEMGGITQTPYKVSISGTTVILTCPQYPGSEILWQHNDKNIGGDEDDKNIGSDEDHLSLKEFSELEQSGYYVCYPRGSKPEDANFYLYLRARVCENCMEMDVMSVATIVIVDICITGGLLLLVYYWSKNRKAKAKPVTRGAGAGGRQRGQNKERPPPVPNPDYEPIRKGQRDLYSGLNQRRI
CD3, sequence (P04234 22-171 partner): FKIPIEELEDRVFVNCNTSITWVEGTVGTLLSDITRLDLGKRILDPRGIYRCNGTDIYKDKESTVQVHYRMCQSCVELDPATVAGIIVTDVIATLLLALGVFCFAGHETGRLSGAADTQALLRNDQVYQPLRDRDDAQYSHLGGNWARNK
CD3, sequence (P09693 23-182 partner): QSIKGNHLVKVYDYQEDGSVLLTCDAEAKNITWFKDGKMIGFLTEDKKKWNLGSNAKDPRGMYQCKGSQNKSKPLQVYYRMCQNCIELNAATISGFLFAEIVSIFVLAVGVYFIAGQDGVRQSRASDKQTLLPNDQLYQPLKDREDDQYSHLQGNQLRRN

As for “Blinatumomab: bi-specific scFv-CD19×CD3 BiTE”, the Kd is around 100 nM in data set [1] and around 1 nM in [2]. The “EC50 for target cell lysis in vitro” value in data set [3] was 0.01 to 0.1 ng/mL.

On to “rituximab: anti-CD20 monoclonal antibody”, for which the response rate in data set [4] is 40%.

For `C=CC(=O)N1CCC[C@@H](n2nc(-c3ccc(Oc4ccccc4)cc3)c3c(N)ncnc32)C1` [ibrutinib, 1-[(3R)-3-[4-Amino-3-(4-phenoxyphenyl)-1H-pyrazolo[3,4-d]pyrimidin-1-yl]piperidin-1-yl]prop-2-en-1-one, reference compound], the “ability of T cells to respond to anti-CD3/CD28 and rhIL-2 stimulation (cell numbers)” value in [5] is reported as “had no impact”. Further, the “impact on CD25+ upregulation” value in data set [6] (ibrutinib 750 nM) was “some modest impact”. Moreover, in [6] (ibrutinib 2500 nM, 24 hour), the “reduction in the number of CD4+/CD25+ T cells” value is around 60% and the “reduction in the number of CD8+/CD25+ T cells” value is reported as around 95%. Moreover, the “inhibition of CD25 upregulation” value in data set [6] (ibrutinib ≦250 nM) was “minimal or no inhibition”. The IFN-γ result in data set [7] (2500 nM, all time points) is on record as “a small reduction in IFN-γ”. Further, the “IL-10 and TNF-α production” value in [7] (2500 nM, from 24 hours) was “decreased IL-10 and TNF-α production”. For the same compound, the “impact on TNF-α, IL-10 and IFN-γ release” value in data set [7] (up to 750 nM, up to 72 hours) was “no or minimal impact”. In addition, the “increase in DART-A EC50 value” in [8] is reported as around 3 fold. For the same compound, the “increase of DART-A EC50 values” in [9] (ibrutinib 750 nM, both time points) is reported as 8-9 fold. Further, the “inhibitory effect on DART-A-mediated redirected T-cell killing” value in data set [9] (ibrutinib ≦250 nM) was “no or minimal inhibitory effect”. Further, the Emax at 0.75 µM in data set [10] (ibrutinib 750 nM, read-out: inhibition in the maximal levels (Emax) of T-cell activation) is at most 36%. Further, the Emax at 2.5 µM in [10] (ibrutinib 2500 nM, read-out: inhibition in the maximal levels (Emax) of T-cell activation) is at most 63%. In data set [10] (ibrutinib ≦250 nm, vs untreated group, read-out: inhibition in the maximal levels (Emax) of T cell activation (% CD25)), the Emax was below 20%. The inhibition at 0.75 µM in [11] (Homo sapiens, B-cell, ibrutinib 750 nM) was found to be 8%. Moreover, the inhibition at 2.5 µM in data set [11] (Homo sapiens, B-cell, ibrutinib 2500 nM) is 60%. Besides, the “inhibition of DART-A-mediated primary B-cell (CD20+) depletion” value in data set [11] (ibrutinib ≦250 nM) is on record as “minimal to no inhibition”. Moreover, in data set [12] (ibrutinib 250 nM), the “inhibition of concomitant T-cell activation and cytokine production” value is “partial inhibition”. Also, the “inhibition of concomitant T-cell activation and cytokine production” value in data set [12] (ibrutinib 2500 nM) is “nearly complete inhibition”. In addition, the “minimum (Ctrough) serum concentration” value in data set [13] was 25 to 50 nM. The Cmax in data set [13] (read-out: maximum (Cmax) serum concentration) was around 250 nM.
